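How tested: cells in 96-well plates exposed to compound for 48 hours at five concentrations. Here, GI50 denotes the concentration required for 50% inhibition of growth.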 Active and inactive are the calls of the source. No stated cut-off is given here; in the data, active = GI50 up to about 1.1 µM and inactive = higher.
Legend:
Experiment in all cases: NCI tumour cell line growth inhibition, 48 h
HOP-62 = test system: HOP-62
RXF 393 = test system: RXF 393
MCF7 = test system: MCF7
UO-31 = test system: UO-31
OVCAR-5 = test system: OVCAR-5
UACC-62 = test system: UACC-62
T47D = test system: T47D
MOLT-4 = test system: MOLT-4
SNB-75 = test system: SNB-75
A549 = test system: A549
CCRF-CEM = test system: CCRF-CEM
SF-295 = test system: SF-295
NCI-H460 = test system: NCI-H460
MDA-MB-435 = test system: MDA-MB-435
MDA-N = test system: MDA-N
MDA-MB-231 = test system: MDA-MB-231
SN12C = test system: SN12C
HOP-92 = test system: HOP-92
SF-539 = test system: SF-539

Measured: GI50

CN1CCN(Cc2nc3c(s2)CCc2sccc2-3)CC1
inactive: HOP-62 > 100 µM | RXF 393 75.5 µM | MCF7 79.8 µM | UO-31 59.8 µM | OVCAR-5 > 100 µM | UACC-62 24.8 µM | T47D 41.6 µM | MOLT-4 77.8 µM | SNB-75 75.7 µM | A549 > 100 µM | CCRF-CEM > 100 µM | SF-295 73.1 µM | NCI-H460 > 100 µM | MDA-MB-435 54.2 µM | MDA-N 48.6 µM | MDA-MB-231 52.2 µM | SN12C > 100 µM

Cc1ccc(S(=O)(=O)NC(=O)Nc2cc(Cl)c(S(N)(=O)=O)cc2S(N)(=O)=O)cc1
inactive: HOP-62 > 100 µM | RXF 393 > 100 µM | MCF7 > 100 µM | UO-31 > 100 µM | OVCAR-5 > 100 µM | UACC-62 > 100 µM | MOLT-4 > 100 µM | SNB-75 > 100 µM | A549 > 100 µM | CCRF-CEM > 100 µM | SF-295 > 100 µM | MDA-MB-435 > 100 µM | HOP-92 > 100 µM | MDA-N > 100 µM | MDA-MB-231 > 100 µM | SF-539 58.3 µM | SN12C > 100 µM

O=C1OCC(O)=C1C(c1ccc(Cl)cc1)c1cc2c(cc1O)OCO2 (stereo unspecified)
inactive: HOP-62 > 100 µM | RXF 393 > 100 µM | MCF7 > 100 µM | UO-31 > 100 µM | OVCAR-5 > 100 µM | UACC-62 > 100 µM | MOLT-4 > 100 µM | SNB-75 > 100 µM | A549 > 100 µM | CCRF-CEM > 100 µM | NCI-H460 > 100 µM | MDA-MB-435 > 100 µM | HOP-92 > 100 µM | MDA-N > 100 µM | MDA-MB-231 > 100 µM | SF-539 > 100 µM | SN12C > 100 µM

CC(OC(=O)C(CC(=O)OC(C)(C)C)NC(=O)OC(C)(C)C)C(=O)OCc1ccccc1 (stereo unspecified)
inactive: HOP-62 > 100 µM | RXF 393 > 100 µM | MCF7 > 100 µM | UO-31 > 100 µM | OVCAR-5 > 100 µM | UACC-62 > 100 µM | T47D > 100 µM | MOLT-4 > 100 µM | SNB-75 > 100 µM | A549 > 100 µM | CCRF-CEM > 100 µM | SF-295 > 100 µM | NCI-H460 > 100 µM | MDA-MB-435 > 100 µM | MDA-N > 100 µM | MDA-MB-231 > 100 µM | SF-539 > 100 µM | SN12C > 100 µM

CCOC(=O)C1=C(Cl)c2cccnc2C1=O
inactive: HOP-62 32.2 µM | RXF 393 > 100 µM | MCF7 38.5 µM | UO-31 > 100 µM | UACC-62 > 100 µM | MOLT-4 34 µM | SNB-75 13 µM | A549 55.7 µM | CCRF-CEM 26.4 µM | SF-295 39.4 µM | NCI-H460 > 100 µM | MDA-MB-435 28 µM | HOP-92 > 100 µM | MDA-N 34.9 µM | MDA-MB-231 > 100 µM | SF-539 82.6 µM | SN12C 52.4 µM

Cc1nc2ccc(Cl)cc2c(Cl)c1CCCl
inactive: HOP-62 42.4 µM | RXF 393 > 100 µM | MCF7 30.6 µM | UO-31 42.2 µM | OVCAR-5 38.5 µM | UACC-62 28.1 µM | MOLT-4 15.6 µM | SNB-75 29.4 µM | A549 40.9 µM | CCRF-CEM 15.1 µM | SF-295 48.2 µM | NCI-H460 43.4 µM | MDA-MB-435 8.36 µM | HOP-92 33.5 µM | MDA-N 8.15 µM | MDA-MB-231 83.6 µM | SF-539 > 100 µM | SN12C 39.5 µM

CC(=O)OC1COC(Nc2nc(NCc3ccccc3)n(C)c(=O)c2N=O)C(OC(C)=O)C1OC(C)=O (stereo unspecified)
inactive: HOP-62 > 10 µM | RXF 393 > 10 µM | MCF7 > 10 µM | OVCAR-5 > 10 µM | UACC-62 > 10 µM | T47D > 10 µM | MOLT-4 > 10 µM | SNB-75 > 10 µM | A549 > 10 µM | CCRF-CEM > 10 µM | SF-295 > 10 µM | NCI-H460 > 10 µM | MDA-MB-435 > 10 µM | MDA-N > 10 µM | MDA-MB-231 > 10 µM | SF-539 > 10 µM | SN12C > 10 µM
